# Test results: US8575376B2, “Steroide anionic compounds, method of their production, usage and pharmaceutical preparation involving them” (Ustav Organicke Chemie A Biochemie Akademie Ved Ceske …, priority 2009, dated 2013)
# Read-outs that look alike come from different tables or passages of the source.
# Assays:
# Type in all cases: in vivo, rat
# Long-Evans rats = assay: Scopolamine-induced cognitive deficit in AAPA (model of Alzheimer disease); conditions: Example 9 1 ml/kg of 1.0 mg/ml i.p. + scopolamine 2.0 mg/kg
# Protocol: The effect of the compound from example 9 on an animal model of age-related cognitive decline and neurodegenerative disorders (including Alzheimer disease) is documented. In the present experiment the effect of central muscarinic blockade by systemic administration of scopolamine at dose 2.0 mg/kg on both reinforced retention of the AAPA and re-acquisition of the AAPA in a new environment was investigated (by the standard method described previously; see Vales and Stuchlik, 2005).
# The compound from example 9 was dissolved in β-cyclodextrine (at a concentration of 1.0 mg/ml). Animals were injected intraperitoneally with 1 ml/kg b.w. of this solution or with 1 ml/kg b.w. of β-cyclodextrine. All animals thus received the same volume of liquid per body weight in each injection. Injections were delivered 40 min prior to behavioural testing). Scopolamine hydrobromide (scopolamine; Sigma Aldrich) was dissolved in saline (0.9% NaCl, 2.0 mg/ml). Animals were injected intraperitoneally with 1 ml/kg b.w. of this solution or with 1 ml/kg b.w. of saline. All animals thus received the same volume of liquid per body weight in each injection. Injections were delivered 20 min prior to behavioural testing. Adult male hooded rats of the Long-Evans strain (3 months old; weighing 300-400g) was used.
# The active allothetic place avoidance apparatus is described in example 28. […]
# [1] = Pharmacokinetics in plasma and brain after i.p. injection
# Protocol: In the experiment 40 adult Long-Evans male rats from breeding colony of Institute of Physiology AS CR v.v.i., Prague were used. Rats were treated i.p. with a dose 1 mg/kg of compound from example 9 dissolved in 72 mM of hydroxypropyl-β-cyclodextrine saline solution. Brain and plasma was taken 5 min, 15 min, 30 min, 45 min, 60 min, 90 min, 120 min, 180 min, 24 hours and 48 hours after drug administration. Each brain and blood samples were taken from separate rat. Samples were collected in 4 rats for each time interval. Samples were immediately stored in a −80° C. freezer.
# The concentrations of compound from example 9 in rat brain and plasma samples were measured by high performance liquid chromatography (HPLC) coupled with mass spectrometry (Agilent 6320 Ion Trap). Deuteried internal standard (3-d labeled compound from example 9) has been used for ensuring high accuracy of measurement.
# rats [2] = assay: Ischemic-hypoxic brain damage (bilateral carotid occlusion + 10% O2): AAPA, rotarod, beam walking
# Protocol: The effect of compound from example 9 on cognitive coordination and motor activity was examined in stroke model of ischemic brain injury. Ischemic-hypoxic damage was induced by bilateral occlusion of common carotid arteries and subsequent confinement in box with 10% O2 (for 30 min). The animals were injected i.p. by compound from example 9 dissolved in β-cyclodextrine (1 mg/kg) immediately after their removal from box. Ischemic group was injected only by β-cyclodextrine in the same time and volume. Surgery was conducted under anesthesia (xylazine 6 mg/kg, thiopental 50 mg/kg).
# It is known that ischemia-hypoxia causes neuronal necrosis in specifically vulnerable areas of brain. The two-vessel occlusion/hypoxic model gives rise to stroke changes, for example in cells of the hippocampus, caudatoputamen and neocortex. As such structures are intimately involved in memory, cognitive and motor processes, ischemia/hypoxia leads to impairment in these functions. Used animal model of stroke damage dealing with ischemia/hypoxia has enabled the identification of deleterious phenomena that may be corrected or neutralized by drugs.
# The effect of ischemic was evaluated a week after surgical procedures in AAPA task, beam walking and rotarod. Ischemia led to deterioration of motor activity (rotarod and beam walking) and deficit in cognitive coordination.
# rats [3] = assay: Prepulse inhibition of the acoustic startle response (sensorimotor gating); conditions: 1 and 10 mg/kg s.c., compound alone
# [4] = rat, 1 mg/kg i.p., mean of 4 rats
# [5] = 1 mg/kg i.p. immediately after hypoxia, tested a week later
smiles,measurement,setting,value
"CC(=O)[C@H]1CC[C@H]2[C@@H]3CC[C@@H]4C[C@H](OC(=O)[C@@H](N)CCC(=O)O)CC[C@]4(C)[C@H]3CC[C@]12C [Example 9, 20-Oxo-5β-pregnan-3α-yl L-glutamyl 1-ester]",scopolamine-induced deficit in AAPA (number of entrances),Long-Evans rats,tends to be decreased
same,Tmax,"[1]; male, Long-Evans, brain, ip, rat, 1 mg/kg i.p., read-out: Tmax in brain (converted)",1 h
same,Cmax,"[1]; male, Long-Evans, plasma, ip, rat, 1 mg/kg i.p.",675 ng/mL
same,Tmax,"[1]; male, Long-Evans, plasma, ip, rat, 1 mg/kg i.p., read-out: Tmax in plasma (converted)",0.25 h
same,half-life,"[1]; male, Long-Evans, rat, intraperitoneal, 1 mg/kg, plasma, estimated",4.45 h
same,AUC,"[1]; male, Long-Evans, rat, ip, 1 mg/kg, plasma, estimated, read-out: AUC0_inf i.p. (converted)",1260 ng·h/mL
same,Ke,"[1]; plasma, estimated",0.002593
same,accumulation in brain tissue,"[1]; rat, 1 mg/kg i.p.",not cumulated in brain tissue
same,blood brain barrier penetration,"[1]; rat, 1 mg/kg i.p.",penetrates blood brain barrier
same,cmax in brain,"[1]; rat, 1 mg/kg i.p.",508 ng/whole brain
same,brain level after 2 hours,[1]; [4],222 ng/whole brain
same,brain level after 3 hours,[1]; [4],128 ng/whole brain
same,brain level after 24 hours,[1]; [4],14 ng/whole brain
same,brain level after 48 hours,[1]; [4],0.6 ng/whole brain
same,total path in AAPA after ischemia/hypoxia,rats [2]; 1 mg/kg i.p.,None of the experimental condition affected locomotion in AAPA
same,cognitive deficit in AAPA (entrances) after ischemia/hypoxia,rats [2]; [5],improves cognitive deficit induced by ischemic/hypoxic procedures in AAPA task
same,motor changes in rotarod and beam walking after ischemia/hypoxia,rats [2]; [5],has no effect on disturbance of motor changes in rotarod and beam walking test
same,prepulse inhibition of the startle response,rats [3],none of the doses of the compound from Example 9 significantly altered this parameter
